Test results as given in PubChem BioAssay (NCI).
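GI50 marks 50% less growth. TGI: concentration producing complete growth inhibition.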

Tests used:
Experiment in all cases: NCI anticancer screen, dose series, 384-well format
[1] = test system: MALME-3M melanoma
[2] = test system: CCRF-CEM leukemia
[3] = test system: KM12 colon
[4] = test system: NCI-H322M lung
[5] = test system: BT-549 breast
[6] = test system: A498 renal
[7] = test system: SF-295 CNS
[8] = test system: HCT-116 colon
[9] = test system: MOLT-4 leukemia
[10] = test system: SK-MEL-28 melanoma
[11] = test system: NCI-H522 lung
[12] = test system: COLO 205 colon
[13] = test system: HCC-2998 colon
[14] = test system: ACHN renal
[15] = test system: HOP-92 NSCLC
[16] = test system: DU-145 prostate
[17] = test system: SR leukemia
[18] = test system: HT29 colon
[19] = test system: SK-MEL-5 melanoma
[20] = test system: NCI-H460 NSCLC
[21] = test system: K-562 leukemia
[22] = test system: NCI/ADR-RES ovarian
[23] = test system: T-47D breast
[24] = test system: RPMI-8226 leukemia
[25] = test system: PC-3 prostate
[26] = test system: SN12C renal
[27] = test system: HCT-15 colon
[28] = test system: CAKI-1 renal
[29] = test system: HL-60(TB) leukemia
[30] = test system: EKVX NSCLC
[31] = test system: SF-539 CNS
[32] = test system: NCI-H23 lung
[33] = test system: MDA-MB-435 melanoma
[34] = test system: 786-0 renal
[35] = test system: HOP-62 NSCLC
[36] = test system: OVCAR-5 ovarian
[37] = test system: A549 NSCLC
[38] = test system: RXF 393 renal
[39] = test system: MDA-MB-231 breast
[40] = test system: SK-OV-3 ovarian
[41] = test system: IGROV1 ovarian
[42] = test system: MCF7 breast
[43] = test system: NCI-H226 lung
[44] = test system: SNB-75 CNS
[45] = test system: SF-268 CNS
[46] = test system: LOX IMVI melanoma
[47] = test system: TK-10 renal
[48] = test system: SW-620 colon
[49] = test system: MDA-MB-468 breast
[50] = test system: OVCAR-3 ovarian
[51] = test system: HS 578T breast
[52] = test system: OVCAR-8 ovarian
[53] = test system: OVCAR-4 ovarian
[54] = test system: M14 melanoma
[55] = test system: UACC-257 melanoma
[56] = test system: SNB-19 CNS
[57] = test system: U251 glioblastoma
[58] = test system: UO-31 renal

CCCS(=O)(=O)Nc1ccc(F)c(C(=O)c2c[nH]c3ncc(Cl)cc23)c1F
GI50 [1]: 0.0363 µM
TGI [1]: 0.118 µM
GI50 [2]: 11.7 µM
TGI [2]: 24 µM
GI50 [3]: 14.3 µM
TGI [3]: 33.3 µM
GI50 [4]: 10.1 µM
TGI [4]: 80.2 µM
GI50 [5]: 15.5 µM
TGI [5]: 29.3 µM
GI50 [6]: 5.21 µM
TGI [6]: 20.3 µM
GI50 [7]: 7.44 µM
TGI [7]: 27.3 µM
GI50 [8]: 8.39 µM
TGI [8]: 23.8 µM
GI50 [9]: 12.3 µM
TGI [9]: 24.9 µM
GI50 [10]: 0.0544 µM
TGI [10]: 0.549 µM
GI50 [11]: 16.1 µM
TGI [11]: 32.1 µM
GI50 [12]: 0.144 µM
TGI [12]: 13.6 µM
GI50 [13]: 20.6 µM
TGI [13]: 35.1 µM
GI50 [14]: 4.26 µM
TGI [14]: 18.7 µM
GI50 [15]: 15 µM
TGI [15]: 36.3 µM
GI50 [16]: 9.18 µM
TGI [16]: 27.9 µM
GI50 [17]: 3.93 µM
TGI [17]: 14.2 µM
GI50 [18]: 0.71 µM
TGI [18]: 17.1 µM
GI50 [19]: 1.05 µM
TGI [19]: 15 µM
GI50 [20]: 6.96 µM
TGI [20]: 21.3 µM
GI50 [21]: 11.3 µM
TGI [21]: 23.7 µM
GI50 [22]: 17.1 µM
TGI [22]: 33.6 µM
GI50 [23]: 17.7 µM
TGI [23]: 55.6 µM
GI50 [24]: 4.76 µM
TGI [24]: 15.7 µM
GI50 [25]: 16.3 µM
TGI [25]: 41 µM
GI50 [26]: 19.6 µM
TGI [26]: 68.3 µM
GI50 [27]: 9.16 µM
TGI [27]: 22 µM
GI50 [28]: 6.54 µM
TGI [28]: 46 µM
GI50 [29]: 11.2 µM
TGI [29]: 23.3 µM
GI50 [30]: 16.3 µM
TGI [30]: 41.3 µM
GI50 [31]: 15.1 µM
TGI [31]: 35.3 µM
GI50 [32]: 18.3 µM
TGI [32]: 37.8 µM
GI50 [33]: 0.681 µM
TGI [33]: 17.7 µM
GI50 [34]: 10.9 µM
TGI [34]: 25.6 µM
GI50 [35]: 13.3 µM
TGI [35]: 32.5 µM
GI50 [36]: 19.2 µM
TGI [36]: 64.3 µM
GI50 [37]: 12.3 µM
TGI [37]: 41.2 µM
GI50 [38]: 4.12 µM
TGI [38]: 13.8 µM
GI50 [39]: 15.3 µM
TGI [39]: 29.8 µM
GI50 [40]: 4.11 µM
TGI [40]: 19.8 µM
GI50 [41]: 4.47 µM
TGI [41]: 17.3 µM
GI50 [42]: 20.3 µM
TGI [42]: 50.7 µM
GI50 [43]: 16.5 µM
TGI [43]: 32.6 µM
GI50 [44]: 11.2 µM
TGI [44]: 34.2 µM
GI50 [45]: 17.5 µM
TGI [45]: 44.7 µM
GI50 [46]: 2.64 µM
TGI [46]: 15.9 µM
GI50 [47]: 10.3 µM
TGI [47]: 28.4 µM
GI50 [48]: 31.6 µM
TGI [48]: 60 µM
GI50 [49]: 10.3 µM
TGI [49]: 23.5 µM
GI50 [50]: 13.5 µM
TGI [50]: 29.7 µM
GI50 [51]: 4.5 µM
TGI [51]: 15.4 µM
GI50 [52]: 13.5 µM
TGI [52]: 39.5 µM
GI50 [53]: 21.1 µM
TGI [53]: 59.1 µM
GI50 [54]: 0.0582 µM
TGI [54]: 2.1 µM
GI50 [55]: 0.183 µM
TGI [55]: 1.18 µM
GI50 [56]: 31.3 µM
TGI [56]: 86 µM
GI50 [57]: 13.1 µM
TGI [57]: 27.2 µM
GI50 [58]: 13.3 µM
TGI [58]: 36.6 µM
